According to US9604980B2, “Substituted pyrimidinyl and pyridinyl-pyrrolopyridinones, process for their preparation and their use as kinase inhibitors” (NERVIANO MEDICAL SCIENCES S.r.l, priority 2012, dated 2017):
Converted amounts (≈) assume the structure as drawn.

Legend:
[1] = High-Throughput Solubility Assay; assay type: physicochemical; details: for solubility at 24 h: kinetic from dmso stock, pH 7, aqueous potassium phosphate buffer, nominal 200 μM, 24 h at room temperature
Experimental: High-Throughput Solubility Assay
A nominal 200 μM suspensions/solutions of a compound of formula (I) in aqueous potassium phosphate buffer at pH=7 and aqueous citric acid buffer at pH=3 were prepared on a “Multiscreen-HTS”, 0.2 μm filter plate (Millipore, Billerica, Mass.). These solutions were stirred for 10 min and stored for 24 h at room temperature to pre-saturate the membrane filter and to reach a “pseudo-thermodynamic solubility”. Then the plate was put on a 500 μL 96 multiwell plate containing 200 μL of acetonitrile in each well and centrifuged at 2000 rpm for 5 minutes. The so obtained solutions were then analyzed simultaneously by HPLC-UV with standard solutions for quantification.

[2] = system: A2780 ovarian carcinoma cells; assay: In Vitro Cell Proliferation Assay (A2780); assay type: cell-based; details: Homo sapiens, 72 hours exposure, CellTiterGlo
Experimental: (§1) In Vitro Cell Proliferation Assay
(§2) To evaluate the antiproliferative activity of a compound of formula (I) the following human cell lines were used: A2780 ovarian and MCF-7 breast carcinoma; TT and MZ-CRC-1 medullary thyroid carcinoma, harboring a mutated RET-C634W and RET-M918T receptor respectively, LC-2/ad Non Small Cell Lung Carcinoma, expressing the CCDC6-RET fusion gene product. Exponentially growing cells were seeded and incubated at 37° C. in a humidified 5% C02 atmosphere using appropriate medium supplemented with 10% Fetal Bovine Serum. 24 hours following cell plating, scalar doses of the compounds dissolved in 0.1% DMSO were added to the medium and cells were exposed to drugs for either 72 hours (MCF-7 and A2780) or 144 hours (TT, MZ-CRC-1 and LC-2/ad), according to their different proliferation rate. At the end of treatment, cell proliferation was determined by an intracellular ATP monitoring system (CellTiterGlo—Promega), following manufacturer's instructions, and using an Envision instrument (PerkinElmer) as reader. Data obtained from compound versus vehicle treated cells were compared using Assay Explorer (Symyx Technologies Inc) software. IC50 values were calculated using sigmoidal interpolation curve fitting.

[3] = system: TT medullary thyroid carcinoma cells, harboring a mutated RET-C634W receptor; assay: In Vitro Cell Proliferation Assay (TT); assay type: cell-based; details: Homo sapiens; 144 hours exposure, CellTiterGlo
Experimental: as §1, §2

[4] = system: MCF-7 breast carcinoma cells; assay: In Vitro Cell Proliferation Assay (MCF-7); assay type: cell-based; details: Homo sapiens, MCF7; 72 hours exposure, CellTiterGlo
Experimental: as §1, §2

[5] = system: MZ-CRC-1 medullary thyroid carcinoma cells, harboring a mutated RET-M918T receptor; assay: In Vitro Cell Proliferation Assay (MZ-CRC-1); assay type: cell-based; details: Homo sapiens, 144 hours exposure, CellTiterGlo
Experimental: as §1, §2

[6] = system: LC-2/ad Non Small Cell Lung Carcinoma cells, expressing the CCDC6-RET fusion gene product; assay: In Vitro Cell Proliferation Assay (LC-2/ad); assay type: cell-based; details: Homo sapiens, 144 hours exposure, CellTiterGlo
Experimental: as §1, §2

Compound | solubility at 24 h [1] | IC50 [2] | IC50 [3] | IC50 [4] | IC50 [5] | IC50 [6] | solubility (in words) ([1]; neutral, physiological pH (pH 7), compared with the reference compound)
CCN1CCN(Cc2ccc(NC(=O)Cc3ccc(C#Cc4cnc(N)nc4-c4cc5c(n4C)CCNC5=O)cc3)cc2C(F)(F)F)CC1 [Cmpd 123, 2-{4-[2-Amino-4-(1-methyl-4-oxo-4,5,6,7-tetrahydro-1H-pyrrolo[3,2-c]pyridin-2-yl)-pyrimidin-5-ylethynyl]-phenyl}-N-[4-(4-ethyl-piperazin-1-ylmethyl)-3-trifluoromethyl-phenyl]-acetamide] | 25.1 µM (≈ 16.8 µg/mL) | 3900 nM | 0.06 µM | > 10 µM | – | – | –
CCCN1CCN(Cc2ccc(NC(=O)Cc3cccc(C#Cc4cnc(N)nc4-c4cc5c(n4C)CCNC5=O)c3)cc2C(F)(F)F)CC1 [Cmpd 164, 2-{3-[2-Amino-4-(1-methyl-4-oxo-4,5,6,7-tetrahydro-1H-pyrrolo[3,2-c]pyridin-2-yl)-pyrimidin-5-ylethynyl]-phenyl}-N-[4-(4-propyl-piperazin-1-ylmethyl)-3-trifluoromethyl-phenyl]-acetamide] | 8.9 µM (≈ 6.09 µg/mL) | 2020 nM | 0.002 µM | 5.62 µM | – | – | –
CCN1CCN(Cc2cc(NC(=O)Nc3cccc(C#Cc4cnc(N)nc4-c4cc5c(n4C)CCNC5=O)c3)cc(C(F)(F)F)c2)CC1 [Cmpd 29, 1-{3-[2-Amino-4-(1-methyl-4-oxo-4,5,6,7-tetrahydro-1H-pyrrolo[3,2-c]pyridin-2-yl)-pyrimidin-5-ylethynyl]-phenyl}-3-[3-(4-ethyl-piperazin-1-ylmethyl)-5-trifluoromethyl-phenyl]-urea] | 7.4 µM (≈ 4.97 µg/mL) | 2230 nM | 0.085 µM | 9.16 µM | – | – | –
Cn1nc(C(C)(C)C)cc1NC(=O)Cc1cccc(C#Cc2cnc(N)nc2-c2cc3c(n2C)CCNC3=O)c1 [Cmpd 105, 2-{3-[2-Amino-4-(1-methyl-4-oxo-4,5,6,7-tetrahydro-1H-pyrrolo[3,2-c]pyridin-2-yl)-pyrimidin-5-ylethynyl]-phenyl}-N-(5-tert-butyl-2-methyl-2H-pyrazol-3-yl)-acetamide] | 15.3 µM (≈ 8.21 µg/mL) | 2740 nM | 0.025 µM | > 10 µM | – | – | –
CCN1CCN(Cc2ccc(NC(=O)Nc3cccc(C#Cc4cnccc4-c4cc5c(n4C)CCNC5=O)c3)cc2C(F)(F)F)CC1 [Cmpd 38, 1-[4-(4-Ethyl-piperazin-1-ylmethyl)-3-trifluoromethyl-phenyl]-3-{3-[4-(1-methyl-4-oxo-4,5,6,7-tetrahydro-1H-pyrrolo[3,2-c]pyridin-2-yl)-pyridin-3-ylethynyl]-phenyl}-urea] | 10.8 µM (≈ 7.08 µg/mL) | 1950 nM | 0.038 µM | 5.04 µM | – | – | –
Cn1c(-c2nc(N)ncc2C#Cc2cccc(NC(=O)Nc3ccc(C(F)(F)F)cc3)c2)cc2c1CCNC2=O [Reference cmpd, 1-{3-[2-Amino-4-(1-methyl-4-oxo-4,5,6,7-tetrahydro-1H-pyrrolo[3,2-c]pyridin-2-yl)-pyrimidin-5-ylethynyl]-phenyl}-3-(4-trifluoromethyl-phenyl)-urea, reference compound] | < 1 µM | 2750 nM | 0.041 µM | 4.54 µM | 0.317 µM | – | lack of solubility
CCCN1CCN(Cc2ccc(NC(=O)Cc3cccc(C#Cc4cnc(NC)nc4-c4cc5c(n4C)CCNC5=O)c3)cc2C(F)(F)F)CC1 [Cmpd 179, 2-{3-[2-Methylamino-4-(1-methyl-4-oxo-4,5,6,7-tetrahydro-1H-pyrrolo[3,2-c]pyridin-2-yl)-pyrimidin-5-ylethynyl]-phenyl}-N-[4-(4-propyl-piperazin-1-ylmethyl)-3-trifluoromethyl-phenyl]-acetamide] | 1.2 µM (≈ 0.839 µg/mL) | 3240 nM | 0.017 µM | – | 0.038 µM | – | –

Now from value to compound:

solubility at 24 h [1] | IC50 [2] | IC50 [3] | IC50 [4] | IC50 [5] | IC50 [6] | solubility (in words) ([1]; neutral, physiological pH (pH 7), compared with the reference compound) | Compound
5.8 µM (≈ 3.9 µg/mL) | 1150 nM | 0.007 µM | 2.81 µM | – | – | – | CCN1CCN(Cc2cc(NC(=O)Nc3cccc(C#Cc4cnc(N)nc4-c4cc5c(n4C)CCNC5=O)c3)ccc2C(F)(F)F)CC1 [Cmpd 22, 1-{3-[2-Amino-4-(1-methyl-4-oxo-4,5,6,7-tetrahydro-1H-pyrrolo[3,2-c]pyridin-2-yl)-pyrimidin-5-ylethynyl]-phenyl}-3-[3-(4-ethyl-piperazin-1-ylmethyl)-4-trifluoromethyl-phenyl]-urea]
< 1 µM | 910 nM | 0.016 µM | – | 0.039 µM | 0.015 µM | – | CCNc1ncc(C#Cc2cccc(CC(=O)Nc3ccc(CN4CCN(C)CC4)c(C(F)(F)F)c3)c2)c(-c2cc3c(n2C)CCNC3=O)n1 [Cmpd 193, 2-{3-[2-Ethylamino-4-(1-methyl-4-oxo-4,5,6,7-tetrahydro-1H-pyrrolo[3,2-c]pyridin-2-yl)-pyrimidin-5-ylethynyl]-phenyl}-N-[4-(4-methyl-piperazin-1-ylmethyl)-3-trifluoromethyl-phenyl]-acetamide]
40.2 µM (≈ 27 µg/mL) | 1930 nM | 0.006 µM | 5.64 µM | – | – | – | CN(C)[C@H]1CCN(Cc2ccc(NC(=O)Cc3cccc(C#Cc4cnc(N)nc4-c4cc5c(n4C)CCNC5=O)c3)cc2C(F)(F)F)C1 [Cmpd 150, 2-{3-[2-Amino-4-(1-methyl-4-oxo-4,5,6,7-tetrahydro-1H-pyrrolo[3,2-c]pyridin-2-yl)-pyrimidin-5-ylethynyl]-phenyl}-N-[4-((S)-3-dimethylamino-pyrrolidin-1-ylmethyl)-3-trifluoromethyl-phenyl]-acetamide]
1.7 µM (≈ 1.14 µg/mL) | 1000 nM | 0.008 µM | 2.19 µM | – | – | – | CCN1CCN(Cc2ccc(NC(=O)Nc3ccc(C#Cc4cnc(N)nc4-c4cc5c(n4C)CCNC5=O)cc3)cc2C(F)(F)F)CC1 [Cmpd 30, 1-{4-[2-Amino-4-(1-methyl-4-oxo-4,5,6,7-tetrahydro-1H-pyrrolo[3,2-c]pyridin-2-yl)-pyrimidin-5-ylethynyl]-phenyl}-3-[4-(4-ethyl-piperazin-1-ylmethyl)-3-trifluoromethyl-phenyl]-urea]
9.4 µM (≈ 6.31 µg/mL) | 704 nM | 0.001 µM | 2.69 µM | – | – | – | CCN1CCN(Cc2ccc(NC(=O)Cc3cncc(C#Cc4cnc(N)nc4-c4cc5c(n4C)CCNC5=O)c3)cc2C(F)(F)F)CC1 [Cmpd 122, 2-{5-[2-Amino-4-(1-methyl-4-oxo-4,5,6,7-tetrahydro-1H-pyrrolo[3,2-c]pyridin-2-yl)-pyrimidin-5-ylethynyl]-pyridin-3-yl}-N-[4-(4-ethyl-piperazin-1-ylmethyl)-3-trifluoromethyl-phenyl]-acetamide]
30.4 µM (≈ 20.4 µg/mL) | 1910 nM | 0.013 µM | 3.73 µM | – | – | – | CN1CCCN(Cc2ccc(NC(=O)Cc3cccc(C#Cc4cnc(N)nc4-c4cc5c(n4C)CCNC5=O)c3)cc2C(F)(F)F)CC1 [Cmpd 149, 2-{3-[2-Amino-4-(1-methyl-4-oxo-4,5,6,7-tetrahydro-1H-pyrrolo[3,2-c]pyridin-2-yl)-pyrimidin-5-ylethynyl]-phenyl}-N-[4-(4-methyl-[1,4]diazepan-1-ylmethyl)-3-trifluoromethyl-phenyl]-acetamide]
4.7 µM (≈ 3.28 µg/mL) | 1720 nM | 0.069 µM | 3.48 µM | 0.231 µM | – | – | CCN1CCN(Cc2ccc(NC(=O)N3CCc4ccc(C#Cc5cnc(N)nc5-c5cc6c(n5C)CCNC6=O)cc43)cc2C(F)(F)F)CC1 [Cmpd 44, 6-[2-Amino-4-(1-methyl-4-oxo-4,5,6,7-tetrahydro-1H-pyrrolo[3,2-c]pyridin-2-yl)-pyrimidin-5-ylethynyl]-2,3-dihydro-indole-1-carboxylic acid [4-(4-ethyl-piperazin-1-ylmethyl)-3-trifluoromethyl-phenyl]-amide]
26.4 µM (≈ 17.9 µg/mL) | 105 nM | 0.002 µM | 8.18 µM | – | – | – | CCN1CCN(Cc2ccc(NC(=O)Cc3ccc(C#Cc4cnc(N)nc4-c4cc5c(n4C)CCNC5=O)s3)cc2C(F)(F)F)CC1 [Cmpd 129, 2-{5-[2-Amino-4-(1-methyl-4-oxo-4,5,6,7-tetrahydro-1H-pyrrolo[3,2-c]pyridin-2-yl)-pyrimidin-5-ylethynyl]-thiophen-2-yl}-N-[4-(4-ethyl-piperazin-1-ylmethyl)-3-trifluoromethyl-phenyl]-acetamide]
